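48-hour exposure; five concentrations; linearly interpolated endpoints. GI50: concentration for 50% inhibition of growth.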 Calls of active or inactive are those of the source. Cut-off read from the data, not from the text of the source: active = GI50 up to about 1.1 µM and inactive = higher.
Tests used:
Assay in all cases: NCI anticancer screen, dose series, 48 h
786-0 = tested on: 786-0
A549 = tested on: A549
ACHN = tested on: ACHN
BT-549 = tested on: BT-549
CAKI-1 = tested on: CAKI-1
CCRF-CEM = tested on: CCRF-CEM
COLO 205 = tested on: COLO 205
DU-145 = tested on: DU-145
EKVX = tested on: EKVX
HCC 2998 = tested on: HCC 2998
HCT-116 = tested on: HCT-116
HCT-15 = tested on: HCT-15
HL-60 = tested on: HL-60
HOP-62 = tested on: HOP-62
HOP-92 = tested on: HOP-92
HT-29 = tested on: HT-29
Hs-578T = tested on: Hs-578T
IGROV-1 = tested on: IGROV-1
K562 = tested on: K562
KM12 = tested on: KM12
LOX IMVI = tested on: LOX IMVI
M14 = tested on: M14
MCF7 = tested on: MCF7
MDA-MB-231 = tested on: MDA-MB-231
MDA-MB-435 = tested on: MDA-MB-435
MOLT-4 = tested on: MOLT-4
Malme-3M = tested on: Malme-3M
NCI-H226 = tested on: NCI-H226
NCI-H23 = tested on: NCI-H23
NCI-H460 = tested on: NCI-H460
NCI-H522 = tested on: NCI-H522
NCI/ADR-RES = tested on: NCI/ADR-RES
OVCAR-3 = tested on: OVCAR-3
OVCAR-4 = tested on: OVCAR-4
OVCAR-5 = tested on: OVCAR-5
OVCAR-8 = tested on: OVCAR-8
PC-3 = tested on: PC-3
RPMI-8226 = tested on: RPMI-8226
RXF 393 = tested on: RXF 393
SF-268 = tested on: SF-268
SF-295 = tested on: SF-295
SF-539 = tested on: SF-539
SK-MEL-28 = tested on: SK-MEL-28
SK-MEL-2 = tested on: SK-MEL-2
SK-MEL-5 = tested on: SK-MEL-5
SN12C = tested on: SN12C
SNB-19 = tested on: SNB-19
SNB-75 = tested on: SNB-75
SR = tested on: SR
SW-620 = tested on: SW-620
TK-10 = tested on: TK-10
U-251 = tested on: U-251
UACC-257 = tested on: UACC-257
UACC-62 = tested on: UACC-62
UO-31 = tested on: UO-31
A498 = tested on: A498
MDA-N = tested on: MDA-N
SK-OV-3 = tested on: SK-OV-3
T47D = tested on: T47D

## COc1ccccc1C(=O)c1ccc2ccccc2c1
786-0
  GI50: 30.1 µM (inactive)
A549
  GI50: 17.9 µM (inactive)
ACHN
  GI50: 41.2 µM (inactive)
BT-549
  GI50: 16.1 µM (inactive)
CAKI-1
  GI50: 13.8 µM (inactive)
CCRF-CEM
  GI50: 20.2 µM (inactive)
COLO 205
  GI50: 20.4 µM (inactive)
DU-145
  GI50: 20.6 µM (inactive)
EKVX
  GI50: 16.5 µM (inactive)
HCC 2998
  GI50: 51.8 µM (inactive)
HCT-116
  GI50: 39.7 µM (inactive)
HCT-15
  GI50: 9.55 µM
HL-60
  GI50: 3.21 µM (inactive)
HOP-62
  GI50: 33.7 µM (inactive)
HOP-92
  GI50: 18.7 µM (inactive)
HT-29
  GI50: 16.7 µM (inactive)
Hs-578T
  GI50: 12.3 µM (inactive)
IGROV-1
  GI50: 11.3 µM (inactive)
K562
  GI50: 4 µM (inactive)
KM12
  GI50: 4.34 µM (inactive)
LOX IMVI
  GI50: 12.6 µM (inactive)
M14
  GI50: 11.9 µM (inactive)
MCF7
  GI50: 8.15 µM (inactive)
MDA-MB-231
  GI50: 35.8 µM (inactive)
MDA-MB-435
  GI50: 3.47 µM (inactive)
MOLT-4
  GI50: 4.34 µM (inactive)
Malme-3M
  GI50: 10.8 µM (inactive)
NCI-H226
  GI50: 31.5 µM (inactive)
NCI-H23
  GI50: 40 µM (inactive)
NCI-H460
  GI50: 15.2 µM (inactive)
NCI-H522
  GI50: 5.85 µM (inactive)
NCI/ADR-RES
  GI50: 41.3 µM (inactive)
OVCAR-3
  GI50: 9.4 µM (inactive)
OVCAR-4
  GI50: 36 µM (inactive)
OVCAR-5
  GI50: 64.6 µM (inactive)
OVCAR-8
  GI50: 26.4 µM (inactive)
PC-3
  GI50: 23.8 µM (inactive)
RPMI-8226
  GI50: 16.2 µM (inactive)
RXF 393
  GI50: 22.5 µM (inactive)
SF-268
  GI50: 30.5 µM (inactive)
SF-295
  GI50: 22 µM (inactive)
SF-539
  GI50: 5.74 µM (inactive)
SK-MEL-28
  GI50: 39.3 µM (inactive)
SK-MEL-2
  GI50: 14.1 µM (inactive)
SK-MEL-5
  GI50: 6.19 µM (inactive)
SN12C
  GI50: 28.1 µM (inactive)
SNB-19
  GI50: 19.5 µM (inactive)
SNB-75
  GI50: 38.2 µM (inactive)
SR
  GI50: 3.24 µM (inactive)
SW-620
  GI50: 8.3 µM (inactive)
TK-10
  GI50: 17.8 µM (inactive)
U-251
  GI50: 13.3 µM (inactive)
UACC-257
  GI50: 30.6 µM (inactive)
UACC-62
  GI50: 7.48 µM (inactive)
UO-31
  GI50: 20.6 µM (inactive)

## CC(=NNC(=S)Nc1cccc(C)c1)c1cccc(C(C)=NNC(=S)Nc2cccc(C)c2)n1
786-0
  GI50: 8.18 µM (inactive)
A498
  GI50: 21.9 µM (inactive)
A549
  GI50: 18.7 µM (inactive)
ACHN
  GI50: 7.24 µM (inactive)
CAKI-1
  GI50: 11.9 µM (inactive)
CCRF-CEM
  GI50: 4.22 µM (inactive)
COLO 205
  GI50: 8 µM (inactive)
DU-145
  GI50: > 100 µM (inactive)
EKVX
  GI50: 26.1 µM (inactive)
HCC 2998
  GI50: 43.3 µM (inactive)
HCT-116
  GI50: 12.2 µM (inactive)
HCT-15
  GI50: 15.2 µM
HL-60
  GI50: 17.3 µM (inactive)
HOP-62
  GI50: 17 µM (inactive)
HOP-92
  GI50: 17.1 µM (inactive)
HT-29
  GI50: 26.1 µM (inactive)
Hs-578T
  GI50: > 100 µM (inactive)
IGROV-1
  GI50: 10.8 µM (inactive)
K562
  GI50: 17.1 µM (inactive)
KM12
  GI50: 0.851 µM (active)
LOX IMVI
  GI50: 15.5 µM (inactive)
M14
  GI50: 11.8 µM (inactive)
MCF7
  GI50: 22.9 µM (inactive)
MDA-MB-231
  GI50: 19 µM (inactive)
MDA-MB-435
  GI50: 22.4 µM (inactive)
MDA-N
  GI50: 42 µM (inactive)
MOLT-4
  GI50: 15 µM (inactive)
Malme-3M
  GI50: 14.9 µM (inactive)
NCI-H226
  GI50: 18.6 µM (inactive)
NCI-H23
  GI50: 27.4 µM (inactive)
NCI-H460
  GI50: 12.8 µM (inactive)
NCI-H522
  GI50: 21.2 µM (inactive)
NCI/ADR-RES
  GI50: 14.2 µM (inactive)
OVCAR-3
  GI50: 3.39 µM (inactive)
OVCAR-4
  GI50: 9.95 µM (inactive)
OVCAR-5
  GI50: 34.8 µM (inactive)
OVCAR-8
  GI50: 11 µM (inactive)
PC-3
  GI50: 22.3 µM (inactive)
RPMI-8226
  GI50: > 100 µM (inactive)
RXF 393
  GI50: 16.2 µM (inactive)
SF-268
  GI50: 59.2 µM (inactive)
SF-295
  GI50: 6.19 µM (inactive)
SF-539
  GI50: 14.6 µM (inactive)
SK-MEL-28
  GI50: > 100 µM (inactive)
SK-MEL-2
  GI50: 13.3 µM (inactive)
SK-MEL-5
  GI50: 8.89 µM (inactive)
SK-OV-3
  GI50: 44.4 µM (inactive)
SN12C
  GI50: 25.8 µM (inactive)
SNB-19
  GI50: 30.5 µM (inactive)
SNB-75
  GI50: 17.5 µM (inactive)
SR
  GI50: 5.25 µM (inactive)
SW-620
  GI50: 19 µM (inactive)
T47D
  GI50: 30.8 µM (inactive)
TK-10
  GI50: 20.3 µM (inactive)
U-251
  GI50: 21.5 µM (inactive)
UACC-257
  GI50: 0.0198 µM (active)
UACC-62
  GI50: 15.2 µM (inactive)
UO-31
  GI50: 16 µM (inactive)

Source: ChEMBL document CHEMBL1201862, “PubChem BioAssay data set” (2004)
